Earlier results on five compounds are cited in patent US6855805B2 (priority 1999, dated 2005).

Each structure is given as a SMILES string.

The data set relates to neuromuscular block. Conditions: dose mg/kg: Sux 1.0, Org 9847 1.5, Rocuronium 0.6, Mivacurium 0.2, Vecuronium 0.1, Cisatracurium 0.1.
As for `COc1ccc(C[C@@H]2c3cc(OC)c(OC)cc3CC[N@+]2(C)CCC(=O)OCCCCCOC(=O)CC[N@@+]2(C)CCc3cc(OC)c(OC)cc3[C@H]2Cc2ccc(OC)c(OC)c2)cc1OC` [Cisatracurium], the “Onset Time” value is 120 to 180 s, the “Recovery 25%” value was 45 min and the “Recovery 75%” value is 60 to 70 min.
With `COc1cc2c(cc1OC)[C@@H](Cc1cc(OC)c(OC)c(OC)c1)[N+](C)(CCCOC(=O)CC/C=C/CCC(=O)OCCC[N+]1(C)CCc3cc(OC)c(OC)cc3[C@H]1Cc1cc(OC)c(OC)c(OC)c1)CC2` (stereo partly drawn) [Mivacurium], the “Onset Time” value was 150 s, the “Recovery 25%” value was 20 min and the “Recovery 75%” value was 27 min.
For `C=CC[N+]1([C@H]2C[C@H]3[C@@H]4CC[C@H]5C[C@H](O)[C@@H](N6CCOCC6)C[C@]5(C)[C@H]4CC[C@]3(C)[C@H]2OC(C)=O)CCCC1` [Rocuronium], the “Onset Time” value is 80 s, the “Recovery 25%” value is reported as 40 min and the “Recovery 75%” value is 60 min.
As for `C[N+](C)(C)CCOC(=O)CCC(=O)OCC[N+](C)(C)C` [Sux, succinylcholine chloride], the “Onset Time” value was 60 s, the “Recovery 25%” value is 5 to 7 min and the “Recovery 75%” value is recorded as 10 min.
Turning to `CC(=O)O[C@H]1C[C@@H]2CC[C@@H]3[C@H](CC[C@@]4(C)[C@H]3C[C@H]([N+]3(C)CCCCC3)[C@@H]4OC(C)=O)[C@@]2(C)C[C@@H]1N1CCCCC1` [Vecuronium], the “Onset Time” value is 120 to 180 s, the “Recovery 25%” value is 40 min and the “Recovery 75%” value is listed as 60 min.
